Data set [1] has as its target T1, bovine epidermal transglutaminase (Bos taurus, UniProt A6QP57).
T1 sequence (A6QP57 1-691): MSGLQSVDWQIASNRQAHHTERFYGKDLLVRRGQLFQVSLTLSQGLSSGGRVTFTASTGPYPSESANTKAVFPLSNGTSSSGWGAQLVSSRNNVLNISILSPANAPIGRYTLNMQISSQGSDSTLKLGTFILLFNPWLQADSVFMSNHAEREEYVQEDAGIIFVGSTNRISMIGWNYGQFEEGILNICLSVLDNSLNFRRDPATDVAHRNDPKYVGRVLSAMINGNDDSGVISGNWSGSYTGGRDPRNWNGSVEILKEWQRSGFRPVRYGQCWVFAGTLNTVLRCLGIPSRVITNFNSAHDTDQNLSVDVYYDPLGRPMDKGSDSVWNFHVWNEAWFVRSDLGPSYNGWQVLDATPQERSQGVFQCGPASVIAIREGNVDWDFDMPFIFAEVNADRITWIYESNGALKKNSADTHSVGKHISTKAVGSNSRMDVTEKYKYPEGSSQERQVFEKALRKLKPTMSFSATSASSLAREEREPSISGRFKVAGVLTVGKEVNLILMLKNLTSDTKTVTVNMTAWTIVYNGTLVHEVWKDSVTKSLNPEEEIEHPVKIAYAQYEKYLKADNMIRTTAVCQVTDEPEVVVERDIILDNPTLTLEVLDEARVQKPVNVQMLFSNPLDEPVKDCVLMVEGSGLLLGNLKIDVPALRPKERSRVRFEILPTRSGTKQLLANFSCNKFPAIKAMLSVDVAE
To be noted: Castelhano et al., Bioorg. Chem. (1988) 16, 335-340; cited from earlier work.

The target of data set [2] is T2, factor XIIIa (Homo sapiens, UniProt P00488).
T2 sequence (P00488 39-732 limits assumed): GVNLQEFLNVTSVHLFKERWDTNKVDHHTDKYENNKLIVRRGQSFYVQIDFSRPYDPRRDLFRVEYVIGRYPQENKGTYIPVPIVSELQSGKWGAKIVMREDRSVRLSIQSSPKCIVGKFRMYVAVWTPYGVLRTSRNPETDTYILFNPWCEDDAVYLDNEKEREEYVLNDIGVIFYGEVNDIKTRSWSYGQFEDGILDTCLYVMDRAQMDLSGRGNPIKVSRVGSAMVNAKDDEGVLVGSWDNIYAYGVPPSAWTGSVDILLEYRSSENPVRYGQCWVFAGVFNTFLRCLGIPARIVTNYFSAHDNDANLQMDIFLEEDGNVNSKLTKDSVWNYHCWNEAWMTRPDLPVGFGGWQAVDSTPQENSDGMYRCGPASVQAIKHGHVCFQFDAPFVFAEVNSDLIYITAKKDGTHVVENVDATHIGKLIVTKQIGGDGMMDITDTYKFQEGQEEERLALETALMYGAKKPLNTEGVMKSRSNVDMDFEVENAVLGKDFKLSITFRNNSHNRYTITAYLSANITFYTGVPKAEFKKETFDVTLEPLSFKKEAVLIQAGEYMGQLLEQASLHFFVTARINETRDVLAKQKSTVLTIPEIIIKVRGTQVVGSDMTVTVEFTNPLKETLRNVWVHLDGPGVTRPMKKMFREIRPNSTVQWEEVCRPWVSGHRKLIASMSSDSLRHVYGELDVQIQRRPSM
Kind of data set: factor XIIIa inhibition (IC50). The class given is biochemical. To be noted: ref [14], unpublished observations.

For data set [3], the system named is human blood clots. Kind of data set: in vitro assay of fibrinolysis (human blood clot lysis). To be noted: 250 μM compound, human whole blood clot, TPA; for fibrinogen (FITC-fibrinogen) release from clots: FIG. 2; for red blood cell release from the blood clots: absorbance 750 nm, FIG. 1. As to the method: A number of TGase inhibitors show promise for exploitation in therapeutic areas where TGase has been implicated. […] Compounds 1 and 3 were evaluated for stimulation of thrombolysis (human blood clot lysis) and associated release of embedded staphylococci using an in vitro assay of fibrinolysis as shown below.
Fresh human venous blood (1 ml) was collected by venepuncture in 13 mM citrate. After addition of Staphylococcus aureus NCTC 8325 (to 10^6 cfu/ml), tissue plasminogen activator (TPA, to 100 ng/ml) and FITC-labelled fibrinogen (to 10 μg/ml) aqueous solutions of compounds 1 or 3 (to 250 μM) or water (control), the blood was clotted by addition of CaCl2 (to 20 mM) and allowed to cross-link for 1 hr at 37° C. Blood clots were washed three times each in 1 ml sterile phosphate buffered saline (PBS), resuspended in 1 ml PBS containing 10 μg/ml TPA and incubated with shaking at 37° C. Samples of the clot suspending fluid were withdrawn at intervals and measured for red blood cell content (absorbance 750 nm), fibrinolysis (fluorescence) and release of Staphylococcus aureus (by viable counting).

Data set [4] deals with T2, factor XIIIa. To be noted: Proof of Principle Studies, ref [10]; cited from earlier work.
The test system of data set [5] is fibrin clot. Kind of data set: stabilized fibrin clot formation. The data set is classed as biochemical.
Data set [6] can be described thus: release of inhibitor from coated polyurethane catheter. The data set is classed as physicochemical. The conditions noted are these: polylactide-glycolide coating, phosphate buffered saline 37° C., over a 336 hour period, FIG. 4. As to the method: Catheter sections (2 cm, polyurethane Venflon, BD […]) were immersed in a solution of compound 3 (10 mg/ml), dissolved in polylactide-glycolide in dichloromethane (256 mg/ml) and allowed to dry in air. Individual sections were placed in 2 ml of phosphate buffered saline at 37° C. with constant shaking. Release of compound 3 was measured by assaying the phosphate buffered saline over a 336 hour period.

Data set [7] relates to femoral artery thrombosis. The conditions noted are these: ref [11]; cited from earlier work.
The subject of data set [8] is thrombus. The conditions noted are these: ref [11]; cited from earlier work.

Where two headings read alike, the source gives them in different places.

The text below walks through data of US20080299170A1, “Medical Devices and Coatings Therefor” (Aston University, priority 2005, published 2008).

Consider `O=C(N[C@@H](Cc1ccccc1)C(=O)NCC1CC(Br)=NO1)OCc1ccccc1` (stereo partly drawn) [(S)-1-[(3-Bromo-4,5-dihydro-isoxazol-5-ylmethyl)-carbamoyl]-2-phenyl-ethyl}-carbamic acid benzyl ester], for which the “inhibition of bovine epidermal transglutaminase” value in data set [1] is “inhibitor”.
One may read the IC50 as the point on the concentration scale where inhibition reaches its midpoint. `C[S+](C)CC(=O)CC[C@H](NC(=O)[C@H](Cc1ccccc1)NC(=O)OCc1ccccc1)C(=O)O` [Compound 1, N-benzyloxycarbonyl-L-phenylalanyl-6-dimethylsulfonium-5-oxo-L-norleucine]: it took 50 µM to reach half-maximal inhibition in data set [2] (IC50). For the same compound, in data set [3], the “fibrinogen (FITC-fibrinogen) release from clots” value is “greatly increased” and the “red blood cell release from the blood clots” value was “increased”. In addition, the IC50 in data set [4] was 30 µM. Besides, the “inhibition of stabilized fibrin clot formation” value in data set [5] is listed as “inhibit stabilized fibrin clot formation”.
`C[S+](C)CC(=O)CC[C@H](NC(=O)[C@@H]1CCCN1C(=O)OCc1ccccc1)C(=O)O` [Compound 2, N-Benzyloxycarbonyl-L-prolinyl-6-dimethylsulfonium-5-oxo-L-norleucine]: the IC50 in data set [2] was 10 µM.
On to `CC(=O)CSc1n(C)cc[n+]1C` [Compound 3], for which, in data set [6], the “release of inhibitor from a coated catheter” value was “prolonged release”. In data set [3], the “fibrinogen (FITC-fibrinogen) release from clots” value is reported as “greatly increased” and the “red blood cell release from the blood clots” value is given as “increased”. In data set [7], the “thrombolysis in a rabbit model of femoral artery thrombosis” value is reported as “enhanced thrombolysis”. In data set [8], the thrombolysis in vitro entry is “enhanced thrombolysis”. For the same compound, the IC50 in data set [4] is 50 µM.
